According to US20100144708A1, “HETEROCYCLIC COMPOUNDS CONTAINING NITROGEN ATOMS OR PHARMACEUTICALLY ACCEPTABLE SALTS THEREOF, PROCESS FOR THE PREPARATION THEREOF AND PHARMACEUTICAL COMPOSITION COMPRISING THE SAME FOR TREATMENT OF CANCER” (Korea Research Instititute of Bioscience and Biotechnology, priority 2006, published 2010):

Key:
PC-3 (prostate cancer) = assay: Test for inhibition of tumor cell growth (SRB), PC-3; format: cell-based, Human; details: Homo sapiens; 48 hours, SRB staining; read-out: GI50 PC-3 (prostate ancer)
Summary of the method: (§1)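 Cells seeded in RPMI 1640 with 5% FBS, exposed to compound (final […], units as printed) for 48 hours at 37° C with 5% CO2, including a time-zero plate. TCA-fixed, SRB-stained, absorbance at 540 nm as percent of control; GI50 is the 50% growth-inhibition concentration.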

[1] = tested on: human prostate cancer cell line, PC-3 cells; assay: Western blot analysis in PC-3 cells; format: cell-based; details: 0, 2, and 5 uM, 24 hours
Protocol: 4×10^6 of human prostate cancer cell line, PC-3 cells were cultured in 100 mm diameter-culture dishes with RPMI media containing 5% FBS for one day, and then treated with the compound prepared in Example 55 at concentrations of 0, 2, and 5 uM for 24 hours, respectively. Then, the cells were carefully washed with 10[…] of PBS twice, and 1 ml of PBS containing protease inhibitor cocktail (Roche, complete™-mini) (1 tablet/50[…] PBS) was added to the each dish. The cells were collected and sonicated. The sonicated cells were centrifuged using a microcentrifuge at 12000 rpm for 20 minutes, and the supernatant was collected. Then, the amount of protein was determined using a Bradford dye reagent (Bio-Rad), and after running 20[…] of the protein on an SDS-PAGE gel, the protein band was transferred to a nitrocellulose membrane (Bio-Rad). Subsequently, the amounts of each protein were analyzed using primary antibodies and secondary antibodies-HRP (horseradish peroxidase) that are specific to each protein to be tested (Amersham or Bio-Rad), and an ECL chemiluminescence reagent (Amersham).

[2] = tested on: human prostate cancer cell line PC-3; assay: Test for tumor growth inhibition in animal model (PC-3 xenograft); format: in vivo; details: intraperitoneal; for effect of inhibiting tumor growth / reduction of tumor weight: final day (day 21)
Protocol: Female S.P.F BALB/c nude mice (7-week-old) were grafted with 3×10^7 cells/□ of human prostate cancer cell line PC-3, and then intraperitoneally administered with the compound prepared in Example 55 at a daily dosage of 30 mg/kg 20 times. A positive control group was intraperitoneally administered with adriamycin at a daily dosage of 2 mg/kg 10 times once every two days.
The changes in their body weight are shown in FIG. 1, the changes in tumor size are shown in FIG. 2, and the tumor weights measured on the final day (day 21) are shown in FIG. 3.

NUGC-3 (gastric cancer) = assay: Test for inhibition of tumor cell growth (SRB), NUGC-3; format: cell-based, Human; details: Homo sapiens, NUGC-3; 48 hours, SRB staining
Summary of the method: as §1

ACHN (kidney cancer) = assay: Test for inhibition of tumor cell growth (SRB), ACHN; format: cell-based, Human; details: Homo sapiens, ACHN; 48 hours, SRB staining
Summary of the method: as §1

[3] = tested on: human prostate cancer cell line, PC-3 cells; assay: Flow cytometric analysis of apoptosis (PI staining) with NAC; format: cell-based; details: 5 uM NAC for 3 hours, then compound 5 uM for 24 hours; compared to cells treated with only the compound
Protocol: 5×10^5 of human prostate cancer cell line, PC-3 cells were cultured in 60 mm diameter-culture dishes with RPMI 1640 media containing 5% FBS in an incubator supplied with 5% CO2 at 37° C. for one day, and then treated with 5 uM NAC (N-acetylcysteine, Sigma) for 3 hours. Then, the cells were treated with the compound prepared in Example 55 at concentrations of 5 uM, cultured for 24 hours. Subsequently, the cells were treated with 0.1% trypsin and detached. The detached cells were transferred to a 15[…] conical tube, and centrifuged at 200×g for 5 minutes to precipitate the cells. Then, the supernatant was removed. 0.5[…] of PBS solution containing 0.1 mg/□ RNase A was added thereto, so as to resuspend the cells. The cells were treated with a PI (propidium iodide) DNA staining solution in a concentration of 50[…]/□ to stain the DNA in the cells for 30 or more minutes. The PI-stained cells were e xcited using a flow cytometer (Becton Dickinson) at 488 nm by a laser beam, and an emission wavelength of 588 nm was represented by a histogram, and then quantitatively analyzed to determine the amount of DNA in the cells.

[4] = tested on: MBA-MB-231 (breast cancer); assay: Test for inhibition of tumor cell growth (SRB), MBA-MB-231; format: cell-based, Human; details: Homo sapiens; 48 hours, SRB staining
Summary of the method: as §1

[5] = 30 mg/kg daily, 20 times, vs vehicle-control, p<0.001

Compound | GI50 (PC-3 (prostate cancer)) | amount of Bcl2 [1] | amount of RhoB [1] | amount of c-abl [1] | amount of p53 [1] | amount of phosphorylated p53 [1] | effect of inhibiting tumor growth [2, 5] | reduction of tumor weight [2, 5] | GI50 (NUGC-3 (gastric cancer)) | GI50 (ACHN (kidney cancer)) | degree of apoptosis [3] | GI50 [4] | deaths ([2]; 2 mg/kg Q2D, 10 times) | effect of inhibiting tumor growth ([2]; 2 mg/kg Q2D, 10 times, p<0.01) | reduction of tumor weight ([2]; 2 mg/kg Q2D, 10 times, p<0.05)
CCCCCCCCCCCC(=O)N1CC[N+](CC)(Cc2cccc(C)c2)CC1 [Example 55, 4-dodecanoyl-1-ethyl-1-(3-methylbenzyl)piperazin-1-ium bromide] | 0.41 µg/mL | down-regulated | increased | increased | sharply increased | sharply increased | 84.0% | 79.5% | 0.9 µg/mL | 3.84 µg/mL | greatly decreased | 4.37 µg/mL | – | – | –
COc1cccc2c1C(=O)c1c(O)c3c(c(O)c1C2=O)C[C@@](O)(C(=O)CO)C[C@@H]3O[C@H]1C[C@H](N)[C@H](O)[C@H](C)O1 [adriamycin] | – | – | – | – | – | – | – | – | – | – | – | – | four | 74.4% | 69.8%
